According to article PMC5626031, “Differential inhibition of adenylylated and deadenylylated forms of M. tuberculosis glutamine synthetase as a drug discovery platform” (PLoS ONE, 2017):
pIC50: −log10 of the molar value. Several values for one entry are separate records, joined by “and”; a condition that tells them apart may be missing. Equal values may be shown once. Read-outs that look alike come from different tables or passages of the source.

Columns and labels:
[1] = tested on: M.tb H37Rv reference strain (ATCC 25618); parameters: method as in PMID 9145860; conditions: approximately 10x higher than the minimal inhibitory concentrations; cited from earlier work
[2] = tested on: M.tb (Beijing220) clinical isolate; conditions: cited from earlier work
[3] = tested on: M.tb H37Rv reference strain; assay: BACTEC 460TB assay of mycobacterial growth; type: cell-based, Mycobacterium tuberculosis; conditions: for Activity against M.tb H37Rv, in words: 100 μM final concentration; for Growth inhibition of M.tb H37Rv (percentage of growth index): 100 μM, day 6 of incubation, relative to control cultures
deadenylylated MtbGS = biological target: T1, deadenylylated MtbGS (Mycobacterium tuberculosis, UniProt P9WN39); assay: biochemical; parameters: species or system M. tuberculosis; conditions: 10μM final concentration, pre-incubation protocol
T1 construct: made in house; host or cells: E. coli YMC11E with pTBSK

adenylylated MtbGS = biological target: T2, adenylylated MtbGS (Mycobacterium tuberculosis, UniProt P9WN39); assay: biochemical; type: biochemical, M. tuberculosis; conditions: for inhibition at 10 µM: 10μM final concentration; for Selectivity for adenylylated vs deadenylylated MtbGS: from % inhibition at 10μM of both enzyme forms; for pIC50: dose-response assay
T2 construct: made in house; host or cells: E. coli YMC11E(DE3) with pTBSK and pTBglnE

[4] = tested on: M.tb (Beijing220) in mouse bone-marrow derived macrophages; assay: Intracellular M.tb in mouse bone-marrow derived macrophage assay; type: cell-based, Mycobacterium tuberculosis; conditions: 100 μM; for Activity against intracellular M.tb (Beijing220), in words: Fig 7; for Percentage killing of intracellular M.tb (Beijing220), Fig 7: MOI 2:1, drug on day 4 post infection, harvest day 2 post drug, first experiment (8 selective compounds)
[5] = average over the 4 screens, read-out: Deadenylated Mtb GS (% inhibition) AVG
[6] = screen 1, read-out: Deadenylated Mtb GS (% inhibition) Screen 1
[7] = screen 2, read-out: Deadenylated Mtb GS (% inhibition) Screen 2
[8] = screen 3, read-out: Deadenylated Mtb GS (% inhibition) Screen 3
[9] = screen 4, read-out: Deadenylated Mtb GS (% inhibition) Screen 4
[10] = pre-incubation protocol, average over the 4 screens, read-out: Adenylated Mtb GS (% inhibition) AVG
[11] = pre-incubation protocol, screen 1, read-out: Adenylated Mtb GS (% inhibition) Screen 1
[12] = pre-incubation protocol, screen 2, read-out: Adenylated Mtb GS (% inhibition) Screen 2
[13] = pre-incubation protocol, screen 3, read-out: Adenylated Mtb GS (% inhibition) Screen 3
[14] = pre-incubation protocol, screen 4, read-out: Adenylated Mtb GS (% inhibition) Screen 4

T1 sequence (P9WN39 2-478 limits assumed): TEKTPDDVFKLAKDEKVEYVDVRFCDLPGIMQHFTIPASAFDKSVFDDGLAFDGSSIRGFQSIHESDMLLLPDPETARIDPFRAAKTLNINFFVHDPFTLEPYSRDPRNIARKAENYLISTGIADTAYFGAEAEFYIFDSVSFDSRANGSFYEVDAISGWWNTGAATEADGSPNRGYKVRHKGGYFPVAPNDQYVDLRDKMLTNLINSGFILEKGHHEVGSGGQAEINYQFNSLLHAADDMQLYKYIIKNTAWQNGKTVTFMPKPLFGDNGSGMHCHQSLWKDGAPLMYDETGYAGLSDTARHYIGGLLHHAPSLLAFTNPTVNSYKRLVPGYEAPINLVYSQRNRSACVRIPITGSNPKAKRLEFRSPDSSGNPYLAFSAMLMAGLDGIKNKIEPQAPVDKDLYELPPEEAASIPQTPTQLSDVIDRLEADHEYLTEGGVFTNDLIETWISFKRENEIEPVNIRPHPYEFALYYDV
T2 sequence (P9WN39 2-478 limits assumed): as above

CC[C@@H](CO)NCCN[C@@H](CC)CO [ethambutol]
Breakpoint concentration to which the H37Rv strain was sensitive [1]: 9.4 µg/mL

CO[C@H]1/C=C/O[C@@]2(C)Oc3c(C)c(O)c4c(O)c(c(/C=N/N5CCN(C)CC5)c(O)c4c3C2=O)NC(=O)/C(C)=C\C=C\[C@H](C)[C@H](O)[C@@H](C)[C@@H](O)[C@@H](C)[C@H](OC(C)=O)[C@@H]1C [rifampicin]
Breakpoint concentration to which the H37Rv strain was sensitive [1]: 2.0 µg/mL
Susceptibility of the Beijing220 clinical isolate [2]: resistant

O=C1NC(C(=O)O)=C(C(=O)O)C(c2ccc([N+](=O)[O-])cc2)N1 (stereo not shown) [Compound 5012]
Activity against M.tb H37Rv, in words [3]: no activity
inhibition at 10 µM (deadenylylated MtbGS; [5]): 15%
inhibition at 10 µM (deadenylylated MtbGS; [6]): 14%
inhibition at 10 µM (deadenylylated MtbGS; [7]): 16%
inhibition at 10 µM (deadenylylated MtbGS; [8]): 4%
inhibition at 10 µM (deadenylylated MtbGS; [9]): 24%
inhibition at 10 µM (adenylylated MtbGS; [10]): 40%
inhibition at 10 µM (adenylylated MtbGS; [11]): 55%
inhibition at 10 µM (adenylylated MtbGS; [12]): 31%
inhibition at 10 µM (adenylylated MtbGS; [13]): 32%
inhibition at 10 µM (adenylylated MtbGS; [14]): 42%

c1ccc(CNc2cc(N3CCCC3)ncn2)cc1 [Compound 5029]
Growth inhibition of M.tb H37Rv (percentage of growth index) [3]: 66%
inhibition at 10 µM (deadenylylated MtbGS; [5]): 7%
inhibition at 10 µM (deadenylylated MtbGS; [6]): 5%
inhibition at 10 µM (deadenylylated MtbGS; [7]): 8%
inhibition at 10 µM (deadenylylated MtbGS; [8]): 7%
inhibition at 10 µM (deadenylylated MtbGS; [9]): 9%
inhibition at 10 µM (adenylylated MtbGS; [10]): 60%
inhibition at 10 µM (adenylylated MtbGS; [11]): 79%
inhibition at 10 µM (adenylylated MtbGS; [12]): 46%
inhibition at 10 µM (adenylylated MtbGS; [13]): 56%
inhibition at 10 µM (adenylylated MtbGS; [14]): 60%
Selectivity for adenylylated vs deadenylylated MtbGS (adenylylated MtbGS): GS-adenylylated specific
Activity against intracellular M.tb (Beijing220), in words [4]: moderate activity
Percentage killing of intracellular M.tb (Beijing220), Fig 7 [4]: 67%

Nc1nc(N)c(NC(=O)c2ccccc2)c(O)n1 [Compound 5009]
Activity against M.tb H37Rv, in words [3]: no activity
inhibition at 10 µM (deadenylylated MtbGS; [5]): 47%
inhibition at 10 µM (deadenylylated MtbGS; [6]): 57%
inhibition at 10 µM (deadenylylated MtbGS; [7]): 41%
inhibition at 10 µM (deadenylylated MtbGS; [8]): 44%
inhibition at 10 µM (deadenylylated MtbGS; [9]): 44%
inhibition at 10 µM (adenylylated MtbGS; [10]): 40%
inhibition at 10 µM (adenylylated MtbGS; [11]): 37%
inhibition at 10 µM (adenylylated MtbGS; [12]): 50%
inhibition at 10 µM (adenylylated MtbGS; [13]): 50%
inhibition at 10 µM (adenylylated MtbGS; [14]): 22%

Cc1cccc(C)c1Nc1c(C(C)C)nc2ccccn12 [Compound 10057]
Growth inhibition of M.tb H37Rv (percentage of growth index) [3]: 53%
inhibition at 10 µM (deadenylylated MtbGS; [5]): 59%
inhibition at 10 µM (deadenylylated MtbGS; [6]): 67%
inhibition at 10 µM (deadenylylated MtbGS; [7]): 62%
inhibition at 10 µM (deadenylylated MtbGS; [8]): 47%
inhibition at 10 µM (deadenylylated MtbGS; [9]): 58%
inhibition at 10 µM (adenylylated MtbGS; [10]): 99%
inhibition at 10 µM (adenylylated MtbGS; [11]): 100%
inhibition at 10 µM (adenylylated MtbGS; [12]): 99%
inhibition at 10 µM (adenylylated MtbGS; [13]): 98%
inhibition at 10 µM (adenylylated MtbGS; [14]): 100%
pIC50 (adenylylated MtbGS; pre-incubation protocol, single assay values, read-out: IC50, adenylylated MtbGS): 5.45 and 4.81
pIC50 (adenylylated MtbGS; enzyme form not given, read-out: IC50 concentration, MtbGS): > 4.00
Selectivity for adenylylated vs deadenylylated MtbGS (adenylylated MtbGS): GS-adenylylated specific
Activity against intracellular M.tb (Beijing220), in words [4]: moderate activity
Percentage killing of intracellular M.tb (Beijing220), Fig 7 [4]: 65%

O=C(O)c1ccncc1 [Compound 5002]
Activity against M.tb H37Rv, in words [3]: no activity
inhibition at 10 µM (deadenylylated MtbGS; [5]): 8%
inhibition at 10 µM (deadenylylated MtbGS; [6]): 0%
inhibition at 10 µM (deadenylylated MtbGS; [7]): 10%
inhibition at 10 µM (deadenylylated MtbGS; [8]): 8%
inhibition at 10 µM (deadenylylated MtbGS; [9]): 14%
inhibition at 10 µM (adenylylated MtbGS; [10]): 45%
inhibition at 10 µM (adenylylated MtbGS; [11]): 68%
inhibition at 10 µM (adenylylated MtbGS; [12]): 40%
inhibition at 10 µM (adenylylated MtbGS; [13]): 38%
inhibition at 10 µM (adenylylated MtbGS; [14]): 35%

NC(CCS(=O)(=O)O)C(=O)O (stereo not shown) [Compound 5]
inhibition at 10 µM (deadenylylated MtbGS; [5]): 2%
inhibition at 10 µM (deadenylylated MtbGS; [6]): 0%
inhibition at 10 µM (deadenylylated MtbGS; [7]): 0%
inhibition at 10 µM (deadenylylated MtbGS; [8]): 6%
inhibition at 10 µM (deadenylylated MtbGS; [9]): 0%
inhibition at 10 µM (adenylylated MtbGS; [10]): 38%
inhibition at 10 µM (adenylylated MtbGS; [11]): 48%
inhibition at 10 µM (adenylylated MtbGS; [12]): 33%
inhibition at 10 µM (adenylylated MtbGS; [13]): 40%
inhibition at 10 µM (adenylylated MtbGS; [14]): 29%
